Source: article PMC5218480 (PLoS ONE, 2017)

Test system: MV-4-11 cells
Test: Gene expression microarray analysis (Affymetrix PrimeView) and GSEA
Type: cell-based, human
Set-up: RFU PODN (11730768_x_at) / Fold change /veh PODN (11730768_x_at) / RFU LINC00158 (11744669_a_at) / Fold change /veh LINC00158 (11744669_a_at) / RFU DUSP10 (11751237_a_at) / Fold change /veh DUSP10 (11751237_a_at) / RFU ID3 (11757404_x_at) / Fold change /veh ID3 (11757404_x_at) / RFU PLEKHG5 (11737974_s_at) / Fold change /veh PLEKHG5 (11737974_s_at) / RFU LRRC4B (11730491_at) / Fold change /veh LRRC4B (11730491_at) / RFU GIMAP4 (11747438_a_at) / Fold change /veh GIMAP4 (11747438_a_at) / RFU KRT8 (11758183_x_at) / Fold change /veh KRT8 (11758183_x_at) / RFU CNN1 (11734310_a_at) / Fold change /veh CNN1 (11734310_a_at) / RFU VPS37D (11726825_at) / Fold change /veh VPS37D (11726825_at) / RFU C10orf10 (11716522_x_at) / Fold change /veh C10orf10 (11716522_x_at) / RFU KIR2DL2 /// KIR2DL4 /// KIR2DL5A /// KIR2DL5B /// KIR2DS1 /// KIR2DS2 /// KIR2DS3 /// KIR2DS4 /// KIR3DL3 /// KIR3DL3 /// KIR3DS1 (11738374_at) / Fold change /veh KIR2DL2 /// KIR2DL4 /// KIR2DL5A /// KIR2DL5B /// KIR2DS1 /// KIR2DS2 /// KIR2DS3 /// KIR2DS4 /// KIR3DL3 /// KIR3DL3 /// KIR3DS1 (11738374_at) / RFU C1QL1 (11718748_at) / Fold change /veh C1QL1 (11718748_at) / RFU TMPRSS4 (11747572_a_at) / Fold change /veh TMPRSS4 (11747572_a_at) / RFU HAMP (11756126_x_at) / Fold change /veh HAMP (11756126_x_at) / RFU RNFT2 (11725882_a_at) / Fold change /veh RNFT2 (11725882_a_at) / RFU NR4A2 (11747474_a_at) / Fold change /veh NR4A2 (11747474_a_at) / RFU ABCC12 (11746883_a_at) / Fold change /veh ABCC12 (11746883_a_at) / RFU TMEM136 (11760407_x_at) / Fold change /veh TMEM136 (11760407_x_at) / RFU CLDN22 /// WWC2 (11732394_at) / Fold change /veh CLDN22 /// WWC2 (11732394_at) / RFU HLA-DPB1 (11760878_x_at) / Fold change /veh HLA-DPB1 (11760878_x_at) / RFU SPINT1 (11716480_a_at) / Fold change /veh SPINT1 (11716480_a_at) / RFU GAP43 (11754022_s_at) / Fold change /veh GAP43 (11754022_s_at) / RFU A4GNT (11735810_at) / Fold change /veh A4GNT (11735810_at) / RFU PRB3 (11715151_x_at) / Fold change /veh PRB3 (11715151_x_at) / RFU TUBB4B (11761932_at) / Fold change /veh TUBB4B (11761932_at) / RFU CAPN14 (11732068_a_at) / Fold change /veh CAPN14 (11732068_a_at) / RFU TMCC2 (11721928_a_at) / Fold change /veh TMCC2 (11721928_a_at) / RFU IRGQ (11745062_a_at) / Fold change /veh IRGQ (11745062_a_at) / RFU FAM174B (11720279_a_at) / Fold change /veh FAM174B (11720279_a_at) / RFU TMPRSS4 (11748680_a_at) / Fold change /veh TMPRSS4 (11748680_a_at) / RFU FAM212B (11763350_a_at) / Fold change /veh FAM212B (11763350_a_at) / RFU PLEKHG5 (11743358_a_at) / Fold change /veh PLEKHG5 (11743358_a_at) / RFU ZSCAN30 (11745921_a_at) / Fold change /veh ZSCAN30 (11745921_a_at) / RFU CMKLR1 (11741424_a_at) / Fold change /veh CMKLR1 (11741424_a_at) / RFU LOC101060620 /// MAPK8IP1 (11723275_at) / Fold change /veh LOC101060620 /// MAPK8IP1 (11723275_at) / RFU SPTSSB (11747773_x_at) / Fold change /veh SPTSSB (11747773_x_at) / RFU PRSS12 (11739890_at) / Fold change /veh PRSS12 (11739890_at) / RFU BIN1 (11741810_x_at) / Fold change /veh BIN1 (11741810_x_at) / RFU WNT11 (11732464_a_at) / Fold change /veh WNT11 (11732464_a_at) / RFU C10orf10 (11716521_a_at) / Fold change /veh C10orf10 (11716521_a_at) / RFU C5orf56 (11738089_at) / Fold change /veh C5orf56 (11738089_at) / RFU CYB561 (11721691_x_at) / Fold change /veh CYB561 (11721691_x_at) / RFU ANKRD19P (11752326_a_at) / Fold change /veh ANKRD19P (11752326_a_at) / RFU OR2T12 /// OR2T33 /// OR2T8 (11738714_s_at) / Fold change /veh OR2T12 /// OR2T33 /// OR2T8 (11738714_s_at) / RFU VCAN (11748164_a_at) / Fold change /veh VCAN (11748164_a_at) / RFU JSRP1 (11732532_at) / Fold change /veh JSRP1 (11732532_at) / RFU KRTAP10-11 (11738290_x_at) / Fold change /veh KRTAP10-11 (11738290_x_at) / RFU MYO3A (11730013_a_at) / Fold change /veh MYO3A (11730013_a_at) / RFU EBF3 (11725865_a_at) / Fold change /veh EBF3 (11725865_a_at) / RFU CAMK2N1 (11719241_x_at) / Fold change /veh CAMK2N1 (11719241_x_at) / RFU C5orf56 (11738088_a_at) / Fold change /veh C5orf56 (11738088_a_at) / RFU OLFML3 (11715873_a_at) / Fold change /veh OLFML3 (11715873_a_at) / RFU LOC100653217 /// NTM (11731650_a_at) / Fold change /veh LOC100653217 /// NTM (11731650_a_at) / RFU MAPK11 (11762145_a_at) / Fold change /veh MAPK11 (11762145_a_at) / RFU FIZ1 (11724087_x_at) / Fold change /veh FIZ1 (11724087_x_at) / RFU OASL (11726364_x_at) / Fold change /veh OASL (11726364_x_at) / RFU SOX15 (11748057_x_at) / Fold change /veh SOX15 (11748057_x_at) / RFU CD79A (11719716_a_at) / Fold change /veh CD79A (11719716_a_at) / RFU HIST1H1D (11736915_at) / Fold change /veh HIST1H1D (11736915_at) / RFU CASKIN2 (11723855_a_at) / Fold change /veh CASKIN2 (11723855_a_at) / RFU LOC730098 (11760151_x_at) / Fold change /veh LOC730098 (11760151_x_at) / RFU OR4N2 (11742367_at) / Fold change /veh OR4N2 (11742367_at) / RFU PRRT2 (11749266_a_at) / Fold change /veh PRRT2 (11749266_a_at) / RFU SNX32 (11753110_a_at) / Fold change /veh SNX32 (11753110_a_at) / RFU CDHR5 (11726645_a_at) / Fold change /veh CDHR5 (11726645_a_at) / RFU RCAN1 (11760418_a_at) / Fold change /veh RCAN1 (11760418_a_at) / RFU FAM167A (11723789_a_at) / Fold change /veh FAM167A (11723789_a_at) / RFU FAM26E (11764081_at) / Fold change /veh FAM26E (11764081_at) / RFU ISYNA1 (11749810_s_at) / Fold change /veh ISYNA1 (11749810_s_at) / RFU ACY1 (11761880_at) / Fold change /veh ACY1 (11761880_at) / RFU 11764098_at / Fold change /veh 11764098_at / RFU SAMD14 (11745864_x_at) / Fold change /veh SAMD14 (11745864_x_at) / RFU NPB (11741838_a_at) / Fold change /veh NPB (11741838_a_at) / RFU TMPRSS6 (11731388_a_at) / Fold change /veh TMPRSS6 (11731388_a_at) / RFU KRTAP10-2 (11738614_at) / Fold change /veh KRTAP10-2 (11738614_at) / RFU ARHGAP8 /// PRR5-ARHGAP8 (11727945_x_at) / Fold change /veh ARHGAP8 /// PRR5-ARHGAP8 (11727945_x_at) / RFU KRTAP5-7 /// NADSYN1 (11734609_at) / Fold change /veh KRTAP5-7 /// NADSYN1 (11734609_at) / RFU RASL12 (11751679_a_at) / Fold change /veh RASL12 (11751679_a_at) / RFU CDKN2B (11736163_a_at) / Fold change /veh CDKN2B (11736163_a_at) / RFU PRF1 (11729649_at) / Fold change /veh PRF1 (11729649_at) / RFU, ZNF638 /// ZNF638-IT1 / Fold change vs veh, ZNF638 /// ZNF638-IT1 / RFU, PANK3 / Fold change vs veh, PANK3 / RFU, SH3YL1 / Fold change vs veh, SH3YL1 / RFU, ZEB2 / Fold change vs veh, ZEB2 / RFU, NRIP1 / Fold change vs veh, NRIP1 / RFU, PTTG1IP / Fold change vs veh, PTTG1IP / RFU, CAPN2 / Fold change vs veh, CAPN2 / RFU, MED14 / Fold change vs veh, MED14 / RFU, SNORA58 / Fold change vs veh, SNORA58 / RFU, C1orf63 / Fold change vs veh, C1orf63 / RFU, LRRFIP1 / Fold change vs veh, LRRFIP1 / RFU, NDUFAF7 / Fold change vs veh, NDUFAF7 / RFU, SLC12A2 / Fold change vs veh, SLC12A2 / RFU, IBTK / Fold change vs veh, IBTK / RFU, ESF1 / Fold change vs veh, ESF1 / Fold change vs veh, TMEM50B / RFU, TAOK1 / Fold change vs veh, TAOK1 / RFU, ACBD3 / Fold change vs veh, ACBD3 / RFU, TMA16 / Fold change vs veh, TMA16 / RFU, RWDD3 / Fold change vs veh, RWDD3 / RFU, BCAT1 / Fold change vs veh, BCAT1 / RFU, EDEM3 / Fold change vs veh, EDEM3 / RFU, TMEM33 / Fold change vs veh, TMEM33 / RFU, WDR75 / Fold change vs veh, WDR75 / RFU, AHCTF1 / Fold change vs veh, AHCTF1 / RFU, TFRC / Fold change vs veh, TFRC / RFU, ZDHHC17 / Fold change vs veh, ZDHHC17 / RFU, NOM1 / Fold change vs veh, NOM1 / RFU, ARL8B / Fold change vs veh, ARL8B / RFU, ZBTB11 / Fold change vs veh, ZBTB11 / RFU, TAMM41 / Fold change vs veh, TAMM41 / RFU, KIAA1704 /// LOC100996395 / Fold change vs veh, KIAA1704 /// LOC100996395 / RFU, ING1 / Fold change vs veh, ING1 / RFU, TRMT61B / Fold change vs veh, TRMT61B / RFU, FUBP3 / Fold change vs veh, FUBP3 / RFU, TP53 / Fold change vs veh, TP53 / RFU, TNKS2 / Fold change vs veh, TNKS2 / RFU, ZFP14 / Fold change vs veh, ZFP14 / RFU, ACTR2 / Fold change vs veh, ACTR2 / RFU, PPP3R1 / Fold change vs veh, PPP3R1 / RFU, PIK3R1 / Fold change vs veh, PIK3R1 / RFU, HNRNPA1 / Fold change vs veh, HNRNPA1 / RFU, RNF170 / Fold change vs veh, RNF170 / RFU, ZNF28 / Fold change vs veh, ZNF28 / RFU, RNGTT / Fold change vs veh, RNGTT / RFU, OGT / Fold change vs veh, OGT / RFU, BRD1 / Fold change vs veh, BRD1 / RFU, MARS / Fold change vs veh, MARS / RFU, ZNF655 / Fold change vs veh, ZNF655 / RFU, FAHD1 / Fold change vs veh, FAHD1 / RFU, BDP1 / Fold change vs veh, BDP1 / RFU, LRRCC1 / Fold change vs veh, LRRCC1 / RFU, ARID1A / Fold change vs veh, ARID1A / RFU, ZNF146 / Fold change vs veh, ZNF146 / RFU, ZNF330 / Fold change vs veh, ZNF330 / RFU, GPN3 / Fold change vs veh, GPN3 / RFU, C9orf123 / Fold change vs veh, C9orf123 / RFU, N4BP2L2 / Fold change vs veh, N4BP2L2 / RFU, ARFIP1 / Fold change vs veh, ARFIP1 / RFU, FAM179B / Fold change vs veh, FAM179B / RFU, BCL10 / Fold change vs veh, BCL10 / RFU, UHRF1BP1L / Fold change vs veh, UHRF1BP1L / RFU, BET1 / Fold change vs veh, BET1 / RFU, CNOT2 / Fold change vs veh, CNOT2 / RFU, ZNF268 / Fold change vs veh, ZNF268 / Fold change vs veh, ZNF507 / RFU, DGCR2 / Fold change vs veh, DGCR2 / RFU, WDSUB1 / Fold change vs veh, WDSUB1 / Fold change vs veh, HSP90B1 /// MIR3652 / RFU, ADSS / Fold change vs veh, ADSS / RFU, GK / Fold change vs veh, GK / RFU, ZNF148 / Fold change vs veh, ZNF148 / RFU, TAF9 / Fold change vs veh, TAF9 / RFU, SLC1A5 / Fold change vs veh, SLC1A5 / RFU, SLMO2 / Fold change vs veh, SLMO2 / RFU, ABCC4 / Fold change vs veh, ABCC4 / RFU, LOC101060439 /// RAP1B / Fold change vs veh, LOC101060439 /// RAP1B / RFU, RFX7 / Fold change vs veh, RFX7 / RFU, GTPBP10 / Fold change vs veh, GTPBP10 / RFU, CNEP1R1 / Fold change vs veh, CNEP1R1 / RFU, BIVM-ERCC5 /// ERCC5 / Fold change vs veh, BIVM-ERCC5 /// ERCC5 / RFU, ILF3 / Fold change vs veh, ILF3 / RFU 11762660_at / Fold change /veh 11762660_at / RFU VCAN (11757783_s_at) / Fold change /veh VCAN (11757783_s_at) / RFU DDX43 (11728927_at) / Fold change /veh DDX43 (11728927_at) / RFU KRT8 (11758188_x_at) / Fold change /veh KRT8 (11758188_x_at) / RFU NKD1 (11759106_at) / Fold change /veh NKD1 (11759106_at) / RFU SRD5A1 (11742802_a_at) / Fold change /veh SRD5A1 (11742802_a_at) / RFU TPSAB1 /// TPSB2 (11721975_s_at) / Fold change /veh TPSAB1 /// TPSB2 (11721975_s_at) / RFU GSTM3 (11746129_a_at) / Fold change /veh GSTM3 (11746129_a_at) / RFU IL23R (11737362_x_at) / Fold change /veh IL23R (11737362_x_at) / RFU TMEM51 (11727254_a_at) / Fold change /veh TMEM51 (11727254_a_at) / RFU PIWIL2 (11732686_x_at) / Fold change /veh PIWIL2 (11732686_x_at) / RFU ORM1 (11744905_x_at) / Fold change /veh ORM1 (11744905_x_at) / RFU CCDC152 (11743942_at) / Fold change /veh CCDC152 (11743942_at) / RFU ECM1 (11717891_a_at) / Fold change /veh ECM1 (11717891_a_at) / RFU IL23R (11748794_a_at) / Fold change /veh IL23R (11748794_a_at) / RFU TNFAIP8L3 (11732012_x_at) / Fold change /veh TNFAIP8L3 (11732012_x_at) / RFU MBOAT4 (11741988_at) / Fold change /veh MBOAT4 (11741988_at) / RFU 11764193_at / Fold change /veh 11764193_at / RFU TMEM53 (11763286_at) / Fold change /veh TMEM53 (11763286_at) / RFU MAGEB2 (11727129_at) / Fold change /veh MAGEB2 (11727129_at) / RFU TMEM200A (11744735_a_at) / Fold change /veh TMEM200A (11744735_a_at) / RFU CCDC152 (11751479_a_at) / Fold change /veh CCDC152 (11751479_a_at) / RFU FAM211A (11726209_a_at) / Fold change /veh FAM211A (11726209_a_at) / RFU RGS16 (11746705_a_at) / Fold change /veh RGS16 (11746705_a_at) / RFU VCAN (11755009_s_at) / Fold change /veh VCAN (11755009_s_at) / RFU RHOB (11743442_s_at) / Fold change /veh RHOB (11743442_s_at) / RFU RGS16 (11720943_a_at) / Fold change /veh RGS16 (11720943_a_at) / RFU RGS16 (11720944_at) / Fold change /veh RGS16 (11720944_at) / RFU, VPS4B / Fold change vs veh, VPS4B / RFU, CREB1 / Fold change vs veh, CREB1 / RFU, DNAJC13 / Fold change vs veh, DNAJC13 / RFU, GNAQ / Fold change vs veh, GNAQ / RFU, CDK5R1 / Fold change vs veh, CDK5R1 / RFU, ZRANB3 / Fold change vs veh, ZRANB3 / RFU, CUL4A / Fold change vs veh, CUL4A / RFU, CCNY / Fold change vs veh, CCNY / RFU, UFL1 / Fold change vs veh, UFL1 / RFU, COG3 / Fold change vs veh, COG3 / RFU, DIAPH2 / Fold change vs veh, DIAPH2 / RFU, SKA2 / Fold change vs veh, SKA2 / RFU, AFF3 / Fold change vs veh, AFF3 / RFU, LMF1 / Fold change vs veh, LMF1 / RFU, IPO11 / Fold change vs veh, IPO11 / RFU, DFFB / Fold change vs veh, DFFB / RFU, FOXP1 / Fold change vs veh, FOXP1 / RFU, CARD8 / Fold change vs veh, CARD8 / RFU, STRN3 / Fold change vs veh, STRN3 / RFU, ADK / Fold change vs veh, ADK / RFU, RASSF2 / Fold change vs veh, RASSF2 / RFU, WIPF1 / Fold change vs veh, WIPF1 / RFU, LARP1B / Fold change vs veh, LARP1B / RFU, RASA1 / Fold change vs veh, RASA1 / RFU, RB1 / Fold change vs veh, RB1 / RFU, PPFIA1 / Fold change vs veh, PPFIA1 / RFU, MAT2A / Fold change vs veh, MAT2A / RFU, CCT5 / Fold change vs veh, CCT5 / RFU, WDR92 / Fold change vs veh, WDR92 / RFU, CUX1 / Fold change vs veh, CUX1 / RFU, TTC7A / Fold change vs veh, TTC7A / RFU, TMEM135 / Fold change vs veh, TMEM135 / RFU, DEPTOR / Fold change vs veh, DEPTOR / RFU, CPM / Fold change vs veh, CPM / RFU, DNAJB6 / Fold change vs veh, DNAJB6 / RFU, CACNA2D3 / Fold change vs veh, CACNA2D3 / RFU, DTX4 / Fold change vs veh, DTX4 / RFU, TFCP2 / Fold change vs veh, TFCP2 / RFU, GMCL1 /// GMCL1P1 / Fold change vs veh, GMCL1 /// GMCL1P1 / RFU, AEBP2 / Fold change vs veh, AEBP2 / RFU, SNHG1 /// SNORD22 /// SNORD25 /// SNORD26 /// SNORD27 /// SNORD28 /// SNORD29 /// SNORD31 / Fold change vs veh, SNHG1 /// SNORD22 /// SNORD25 /// SNORD26 /// SNORD27 /// SNORD28 /// SNORD29 /// SNORD31 / Fold change (Aza/veh), C12orf56 (ProbeSet 11735607_a_at) / Fold change (ACY-1035/veh), C12orf56 (ProbeSet 11735607_a_at) / Fold change (Aza/veh), FGFR1OP (ProbeSet 11751329_s_at) / Fold change (ACY-1035/veh), FGFR1OP (ProbeSet 11751329_s_at) / Fold change (Aza/veh), VPS36 (ProbeSet 11739960_a_at) / Fold change (ACY-1035/veh), VPS36 (ProbeSet 11739960_a_at) / RFU SYPL1 (11715823_x_at) / Fold change /veh SYPL1 (11715823_x_at) / RFU IGFBP7 (11715501_s_at) / Fold change /veh IGFBP7 (11715501_s_at) / RFU REEP3 (11722064_at) / Fold change /veh REEP3 (11722064_at) / RFU IGLL1 (11728026_x_at) / Fold change /veh IGLL1 (11728026_x_at): dose or concentration left out as unconfirmed
Conditions: ProbeSet 11717308_a_at; LIST B

Q: `Nc1ccc(-c2cccs2)cc1NC(=O)c1ccc2c(c1)cc(C1CC1)n2CCN1CCOCC1` [ACY-1035] was tested. Which “RFU, WDR75” value did it give?
A: 291.65 RFU
